Experimental findings from patent US10336702B2, “Pharmaceutically active compounds” (BERGENBIO ASA, priority 2015, dated 2019) are described below.

What all share (type): biochemical
One test has as its target T1, Akt1 (Homo sapiens, UniProt P31749).
T1 construct: unspecified tag, removed (detagged) (cleaved yes); purchased SignalChem and Proteros (Akt1); Merck Millipore (PDK1) 14-452 (PDK1); none given for Akt1
The experiment in a line: Akt activation assay (PDK1-mediated activation, LANCE Ultra crosstide TR-FRET), Akt1. Conditions: read-out: Biological Assay 1 IC50 (nM) Akt1. The procedure: (§1) Biological Assay 1: Akt Activation Assay
(§2) Addition of a Europium-labelled antibody specific to the phosphopeptide allows energy transfer from the Europium donor to the Ultra Ulight™ acceptor if close enough in proximity.
(§3) Full length active His6-tagged PDK1 was obtained from Merck Millipore (14-452).
(§4) 1× assay buffer (AB): 50 mM HEPES pH 7.5, 1 mM EGTA, 10 mM MgCl2, 0.01% Tween. Immediately before use, DTT to a concentration of 2 mM was added.
(§5) To prepare lipid vesicles: 1 mg/ml PtdIns(3,4,5)P3 solution (in 10 mM HEPES 7.5) was added to 16.7 mg/ml DOPS/DOPC mixture (in 10 mM HEPES pH 7.5) in a ratio of 1:8.3. MilliQ water was added to the solution to generate concentrations of 400 μM DOPS, 400 μM DOPC and 40 μM PtdIns(3,4,5)P3. The mixture was subjected to 5× freeze/thaw cycles and aliquots stored at −20° C.
(§6) 5 μL enzyme in 1×AB was incubated with 2.5 μL test compound. To start the reaction 2.5 μL reaction mix was added which consisted of PDK1, lipid preparations, crosstide and ATP in 1×AB. Final assay concentrations were as follows: 1% DMSO, 5 nM SignalChem Akt1/15 nM SignalChem Akt2/3 nM Signalchem Akt3/5 nM Proteros Akt1/5 nM proteros Akt2/5 nM Proteros Akt3, 5 nM PDK1, 5.5 μM DOPS, 5.5 μM DOPC, 0.55 μM PtdIns(3,4,5)P3, 100 μM ATP, 100 nM LANCE® Ultra Ulight™-Crosstide. After 30 min, the reaction was stopped using 5 μL 40 μM EDTA in 1× Detection buffer for 5 min. For detection, 5 μL 8 nM LANCE® Ultra Europium-anti-phospho-Crosstide antibody in 1× Detection buffer was added to each well and incubated for 1 h. Plates read with the EnVision® Multilabel Plate Reader, excitation at 320 nm and emission at 665 nm and 615 nm. Compound IC50 was determined using a 4-parameter equation.

A further test addresses T2, Akt2 (Homo sapiens, UniProt P31751).
T2 construct: unspecified tag, removed (detagged) (cleaved yes); purchased SignalChem and Proteros (Akt2); Merck Millipore (PDK1) 14-452 (PDK1); none given for Akt2
The experiment in a line: Akt activation assay (PDK1-mediated activation, LANCE Ultra crosstide TR-FRET), Akt2. Conditions: read-out: Biological Assay 1 IC50 (nM) Akt2. On the procedure: as §1, §2, §3, §4, §5, §6

A further test deals with T3, Akt3 (Homo sapiens, UniProt Q9Y243).
T3 construct: unspecified tag, removed (detagged) (cleaved yes); purchased SignalChem and Proteros (Akt3); Merck Millipore (PDK1) 14-452 (PDK1); none given for Akt3
The test is described as follows: Akt activation assay (PDK1-mediated activation, LANCE Ultra crosstide TR-FRET), Akt3. Conditions: read-out: Biological Assay 1 IC50 (nM) Akt3. The procedure: as §1, §2, §3, §4, §5, §6
In general terms: TR-FRET usually uses a lanthanide donor and a delayed reading to cut background.

T2 sequence (P31751 whole entry): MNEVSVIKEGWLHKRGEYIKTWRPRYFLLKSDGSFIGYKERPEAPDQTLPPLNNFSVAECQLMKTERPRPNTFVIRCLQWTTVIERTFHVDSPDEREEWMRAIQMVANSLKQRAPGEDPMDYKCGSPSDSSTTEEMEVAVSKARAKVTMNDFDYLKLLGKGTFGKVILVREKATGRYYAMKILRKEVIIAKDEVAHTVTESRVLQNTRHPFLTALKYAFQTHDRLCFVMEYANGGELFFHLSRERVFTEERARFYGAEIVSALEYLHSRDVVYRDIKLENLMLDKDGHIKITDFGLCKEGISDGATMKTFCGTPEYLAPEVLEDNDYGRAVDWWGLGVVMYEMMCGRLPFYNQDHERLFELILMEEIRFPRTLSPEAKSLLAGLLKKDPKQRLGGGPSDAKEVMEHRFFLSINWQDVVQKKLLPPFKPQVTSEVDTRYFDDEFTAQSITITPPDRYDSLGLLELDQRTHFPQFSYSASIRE
T3 sequence (Q9Y243 whole entry): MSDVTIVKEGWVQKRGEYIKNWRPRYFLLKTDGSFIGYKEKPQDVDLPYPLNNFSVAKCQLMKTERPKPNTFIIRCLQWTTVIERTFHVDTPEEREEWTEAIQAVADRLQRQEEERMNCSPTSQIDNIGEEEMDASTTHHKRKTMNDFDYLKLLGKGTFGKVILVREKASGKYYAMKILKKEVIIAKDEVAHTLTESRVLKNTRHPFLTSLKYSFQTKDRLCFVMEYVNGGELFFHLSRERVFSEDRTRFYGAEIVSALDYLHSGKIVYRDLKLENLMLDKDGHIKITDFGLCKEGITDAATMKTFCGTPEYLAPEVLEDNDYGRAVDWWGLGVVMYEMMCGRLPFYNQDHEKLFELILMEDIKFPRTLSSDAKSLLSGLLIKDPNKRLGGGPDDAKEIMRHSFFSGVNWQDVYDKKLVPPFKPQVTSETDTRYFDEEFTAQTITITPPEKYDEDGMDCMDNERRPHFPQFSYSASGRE
T1 sequence (P31749 whole entry): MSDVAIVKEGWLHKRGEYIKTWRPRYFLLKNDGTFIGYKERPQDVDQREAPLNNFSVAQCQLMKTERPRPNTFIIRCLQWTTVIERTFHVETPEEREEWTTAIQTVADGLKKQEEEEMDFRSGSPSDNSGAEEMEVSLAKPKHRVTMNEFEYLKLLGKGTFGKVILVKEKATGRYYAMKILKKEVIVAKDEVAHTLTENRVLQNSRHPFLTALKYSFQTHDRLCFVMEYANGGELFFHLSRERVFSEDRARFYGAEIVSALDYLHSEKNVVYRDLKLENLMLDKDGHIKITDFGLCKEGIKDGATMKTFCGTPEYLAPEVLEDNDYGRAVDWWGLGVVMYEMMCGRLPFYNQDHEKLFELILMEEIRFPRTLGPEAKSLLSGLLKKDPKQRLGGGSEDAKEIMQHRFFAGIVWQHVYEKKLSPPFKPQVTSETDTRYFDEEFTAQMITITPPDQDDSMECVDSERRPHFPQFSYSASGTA

As usually defined, the IC50 is the concentration that inhibits the measured activity by half. As to `COC1CCC(CC(=O)Nc2cnc(-c3ccc(C4(N)COC4)cc3)c(-c3ccccc3)c2)CC1` (mixture of isomers) [Example 21, N-(6-(4-(3-aminooxetan-3-yl)phenyl)-5-phenylpyridin-3-yl)-2-(4-methoxycyclohexyl)acetamide], the results for the IC50 on Akt1, on Akt2 and on Akt3 were more than 55000 nM, 1100 nM and 210 nM, respectively.
For the molecule `CC(=O)N(C)[C@H]1CC[C@H](CC(=O)Nc2cnc(-c3ccc([C@@H](C)N)cc3)c(-c3ccccc3)c2)CC1` [Example 8, N-(6-(4-((R)-1-aminoethyl)phenyl)-5-phenylpyridin-3-yl)-2-(trans-4-(N-methylacetamido)cyclohexyl)acetamide], the results for the IC50 at Akt1, at Akt2 and at Akt3 were 12000 nM, 710 nM and 51 nM, respectively.
On the same counts, the results for `CC(=O)N(C)[C@H]1CC[C@H](CC(=O)Nc2cnc(-c3ccc([C@H](N)C(F)F)cc3)c(-c3ccccc3)c2)CC1` [Example 11, N-(6-(4-((S)-1-amino-2,2-difluoroethyl)phenyl)-5-phenylpyridin-3-yl)-2-(trans-4-(N-methylacetamido)cyclohexyl)acetamide] are more than 30000 nM, more than 20000 nM and 630 nM.
`CC(=O)N[C@H]1CC[C@H](CC(=O)Nc2cnc(-c3ccc([C@]4(N)C[C@@H](O)C4)cc3)c(-c3ccccc3)c2)CC1` [Example 13, 2-(trans-4-acetamidocyclohexyl)-N-(6-(4-(trans-1-amino-3-hydroxycyclobutyl)phenyl)-5-phenylpyridin-3-yl)acetamide]: the values for the IC50 on Akt2 and at Akt3 were 480 nM and 220 nM, respectively.
Take `CC(=O)N[C@H]1CC[C@H](CC(=O)Nc2cnc(-c3ccc(C4(N)COC4)cc3)c(-c3ccccc3)c2)CC1` [Example 14, 2-(trans-4-acetamidocyclohexyl)-N-(6-(4-(3-aminooxetan-3-yl)phenyl)-5-phenylpyridin-3-yl)acetamide]: the IC50 is more than 30000 nM on Akt1, 1300 nM on Akt2 and 600 nM on Akt3.
Take `Cc1cscc1-c1cc(NC(=O)C[C@H]2CC[C@H](N(C)S(C)(=O)=O)CC2)cnc1-c1ccc(C2(N)CCC2)cc1` [Example 19, N-(6-(4-(1-aminocyclobutyl)phenyl)-5-(4-methylthiophen-3-yl)pyridin-3-yl)-2-(trans-4-(N-methylmethylsulfonamido)cyclohexyl)acetamide]: the values for the IC50 at Akt1, on Akt2 and on Akt3 were more than 30000 nM, more than 26000 nM and 6400 nM, respectively.
On the same counts, the results for `CC(C)(C(=O)N[C@H]1CC[C@H](CC(=O)Nc2cnc(-c3ccc(C4(N)CCC4)cc3)c(-c3cccnc3)c2)CC1)C(F)(F)F` [Example 20, N-(trans-4-(2-((2-(4-(1-aminocyclobutyl)phenyl)-[3,3′-bipyridin]-5-yl)amino)-2-oxoethyl)cyclohexyl)-3,3,3-trifluoro-2,2-dimethylpropanamide] are more than 30000 nM, more than 15000 nM and 6800 nM.
Taken in the same sequence, the figures for `C[C@@H]1CC(CC(=O)Nc2cnc(-c3ccc(C4(N)COC4)cc3)c(-c3ccccc3)c2)C[C@H](C)O1` (some centres unmarked) [Example 22, N-(6-(4-(3-aminooxetan-3-yl)phenyl)-5-phenylpyridin-3-yl)-2-((2r,6s)-2,6-dimethyltetrahydro-2H-pyran-4-yl)acetamide] were more than 30000 nM, 2600 nM and 210 nM.
On the same counts, the results for `Cc1nncn1[C@H]1CC[C@H](CC(=O)Nc2cnc(-c3ccc(C(C)(C)N)cc3)c(-c3ccccc3)c2)CC1` [Example 23, N-(6-(4-(2-aminopropan-2-yl)phenyl)-5-phenylpyridin-3-yl)-2-(trans-4-(3-methyl-4H-1,2,4-triazol-4-yl)cyclohexyl)acetamide] are more than 30000 nM, 11000 nM and 430 nM.
With `CC(=O)N[C@H]1CC[C@H](CC(=O)Nc2cnc(-c3ccc(C4(N)CC(F)(F)C4)cc3)c(-c3ccccc3)c2)CC1` [Example 25, 2-(trans-4-acetamidocyclohexyl)-N-(6-(4-(1-amino-3,3-difluorocyclobutyl)phenyl)-5-phenylpyridin-3-yl)acetamide], the IC50 at Akt1 is 8300 nM; at Akt2, 270 nM; at Akt3, 170 nM.
Taken in the same sequence, the figures for `NC1(c2ccc(-c3ncc(NC(=O)C[C@H]4CC[C@H](NS(=O)(=O)C5CC5)CC4)cc3-c3ccccc3)cc2)COC1` [Example 37, N-(6-(4-(3-aminooxetan-3-yl)phenyl)-5-phenylpyridin-3-yl)-2-(trans-4-(cyclopropanesulfonamido)cyclohexyl)acetamide] were more than 30000 nM, 590 nM and 56 nM.
On the same counts, the results for `C[C@]1(O)C[C@@](N)(c2ccc(-c3ncc(NC(=O)C[C@H]4CC[C@H](NC(=O)C(F)F)CC4)cc3-c3ccccc3)cc2)C1` [Example A5, N-(trans-4-(2-((6-(4-(trans-1-amino-3-hydroxy-3-methylcyclobutyl)phenyl)-5-phenylpyridin-3-yl)amino)-2-oxoethyl)cyclohexyl)-2,2-difluoroacetamide] are 760 nM, 43 nM and 10 nM.
Taken in the same sequence, the figures for `CC(C)(C(=O)N[C@H]1CC[C@H](CC(=O)Nc2cnc(-c3ccc(C4(N)COC4)cc3)c(-c3ccccc3)c2)CC1)C(F)(F)F` [Example A6, N-(trans-4-(2-((6-(4-(3-aminooxetan-3-yl)phenyl)-5-phenylpyridin-3-yl)amino)-2-oxoethyl)cyclohexyl)-3,3,3-trifluoro-2,2-dimethylpropanamide] were more than 30000 nM, 1400 nM and 130 nM.
In the case of `CC(=O)N[C@H]1CC[C@H](CC(=O)Nc2cnc(-c3ccc([C@H](C)N)cc3)c(-c3ccccc3)c2)CC1` [Example A8, 2-(trans-4-acetamidocyclohexyl)-N-(6-(4-((S)-1-aminoethyl)phenyl)-5-phenylpyridin-3-yl)acetamide], the IC50 was more than 30000 nM at Akt1, 6900 nM on Akt2 and 530 nM on Akt3.
As for `CC(=O)N[C@H]1CC[C@H](CC(=O)Nc2cnc(-c3ccc([C@@H](C)N)cc3)c(-c3ccccc3)c2)CC1` [Example A9, 2-(trans-4-acetamidocyclohexyl)-N-(6-(4-((R)-1-aminoethyl)phenyl)-5-phenylpyridin-3-yl)acetamide], the results for the IC50 on Akt2 and on Akt3 were 400 nM and 80 nM, respectively.
As to `C[C@H](N)c1ccc(-c2ncc(NC(=O)C[C@H]3CC[C@H](NC(=O)C(C)(C)C(F)(F)F)CC3)cc2-c2ccccc2)cc1` [Example A10, N-(trans-4-(2-((6-(4-((S)-1-aminoethyl)phenyl)-5-phenylpyridin-3-yl)amino)-2-oxoethyl)cyclohexyl)-3,3,3-trifluoro-2,2-dimethylpropanamide], the values for the IC50 at Akt1, on Akt2 and at Akt3 were more than 30000 nM, 18000 nM and 4600 nM, respectively.
Take `C[C@@H](N)c1ccc(-c2ncc(NC(=O)C[C@H]3CC[C@H](NC(=O)C(C)(C)C(F)(F)F)CC3)cc2-c2ccccc2)cc1` [Example A11, N-(trans-4-(2-((6-(4-((R)-1-aminoethyl)phenyl)-5-phenylpyridin-3-yl)amino)-2-oxoethyl)cyclohexyl)-3,3,3-trifluoro-2,2-dimethylpropanamide]: the concentration for half-maximal inhibition (IC50) is 1500 nM at Akt2 and 880 nM on Akt3.
For the molecule `C[C@H](N)c1ccc(-c2ncc(NC(=O)C[C@H]3CC[C@H](N(C)S(C)(=O)=O)CC3)cc2-c2ccccc2)cc1` [Example A13, N-(6-(4-((S)-1-aminoethyl)phenyl)-5-phenylpyridin-3-yl)-2-(trans-4-(N-methylmethylsulfonamido)cyclo-hexyl)acetamide], the IC50 is more than 30000 nM at Akt1, 8100 nM on Akt2 and 830 nM on Akt3.
For the molecule `CC(C)(C)C(=O)N[C@H]1CC[C@H](CC(=O)Nc2cnc(-c3ccc(C(C)(C)N)cc3)c(-c3ccccc3)c2)CC1` [Example A34, N-(trans-4-(2-((6-(4-(2-aminopropan-2-yl)phenyl)-5-phenylpyridin-3-yl)amino)-2-oxoethyl)cyclohexyl)pivalamide], the IC50 at Akt1 was more than 30000 nM; on Akt3, 160 nM.
